# Experimental data from paper PMC9386018, “A lymphatic-absorbed multi-targeted kinase inhibitor for myelofibrosis therapy” (Nature Communications, 2022).
# “And” between values parts separate entries of the source, which are not always exact repeats. Equal values may be shown once.
# Experiments:
# [1] = system: phosphorylated ERK1/2 (pT202/pY204) in SET-2 cells; assay: Phospho-flow cytometry of pERK1/2 in SET-2 cells; assay type: cell-based, human; settings: 5 μM, 16 h
# Experimental: The human megakaryoblastic cell line, SET-2 (ATCC), was maintained in RPMI 1640 supplemented with 20% FBS and incubated for 16 h at 10^6 cells mL^−1 with LP-182 or vehicle (DMSO; dimethyl sulfoxide), then washed in ice-cold PBS, and collected for flow cytometry analysis. Single-cell suspensions of mouse spleen were prepared from MPL^W515L MF mice (below) in RPMI 1640 supplemented with 5% FCS. Red blood cells were lysed by ammonium chloride-mediated red cell lysis (RCL) buffer and passed through a nylon mesh, and then cells were counted. For intracellular phospho-protein staining, SET-2 or spleen cells were fixed and then permeabilized using BD Phospho-flow fixation buffer and Perm-Buffer III (BD biosciences) according to the manufacturer’s protocol. Intracellular phospho-protein staining was performed using fluorochrome-conjugated antibodies, pAKT (pS473)-Alexa Fluor 647 (MB89-61) or pERK1/2 (pT202/pY204)-Alexa Fluor 647 (20 A). All phospho-flow antibodies were purchased from BD Biosciences. […] Flow cytometry was performed on a FACS Fortessa (Becton, Dickinson and Co.) using FACSDiVa software, and data analyzed using FlowJo software (Tree Star). […]
# [2] = system: MPL^W515L mouse model of myelofibrosis; assay: MPL^W515L MF mouse model Study 2: spleen volume by MRI; assay type: in vivo; settings: for Spleen volume/body weight ratio: Study 2, individual animals, Supplementary Figure 11a
# Experimental: Generation of the MPL^W515L mutant MF mouse model was similar to previously described methods. Briefly, female donor BALB/c mice were treated with 5-fluorouracil at 150 mg kg^−1 intraperitoneal for 5 d before harvesting bone marrow. Hematopoietic stem and progenitor cells were enriched with CD117 magnetic beads (Miltenyi Biotec), transduced with retrovirus containing MSCV-hMPL W515L-IRES-GFP, then 50,000 transduced HSPCs along with 300,000 total non-stem cells were injected intravenously into lethally irradiated female BALB/c recipients. Development of MF was evaluated by spleen volumes using MRI beginning ~14 d following bone marrow transplantation (BMT) as outlined below, continuing weekly until end of the study. Mice were separated into equal groups based on spleen size ~14–21 d post-BMT, then treated with vehicle (Maisine CC) or LP-182 at 400 mg kg^−1 daily by oral gavage for 14–28 d or until mice were euthanized using guidelines for end stage illness and humane endpoints. Untreated healthy control animals were used for experimental comparisons. Tissues were harvested and processed for flow cytometry (as described above), LCMS/MS, immuno-blotting, and histological analysis (as described in Supplementary Methods) at the defined study endpoint(s), approximately 1–2 h post-treatment with vehicle or LP-182. Briefly, blood samples were collected, transferred into K2-EDTA tubes (BD Microtainer), inverted gently to mix, then centrifuged at 2000 x g for 15 min. […] Dissection and bone marrow isolation from mouse femur and tibia was performed similar to previously described methods. Briefly, the hind limbs from mice were dissected, muscle and connective tissue removed, and bones were frozen at −80 °C. Femur and tibia were thawed separately, placed knee-end down in 18 gauge needle-pierced 0.5 mL microcentrifuge tubes nested inside 1.5 or 2 mL microcentrifuge tubes containing 1.4 mm ceramic beads (Fisher Scientific), then bone marrow was isolated by centrifugation at 10,000 x g for 1 min and processed for analysis by LCMS/MS (above; femur) or immuno-blotting (tibia). […] Soluble protein extracts were isolated by centrifugation at 15,000 x g for 15 min at 4 °C, quantified using Micro BCA protein assay (Thermo Scientific), then mixed with reducing 6X SDS-PAGE loading dye, heated for 8 min at 95 °C, and stored at −20 °C until immuno-blot analysis. Whole cell lysates were resolved by 10% SDS-PAGE, transferred to PVDF (Immobilon-P; MilliporeSigma), then membranes were blocked with 5% BSA (Equitech-Bio) in TBS containing 0.1% Tween-20 (TBST) for 1 h at room temperature with gentle orbital shaking. […]
# [3] = Microsomal stability; assay type: in vitro ADME; settings: mouse, liver microsomes; ~1 µM, NADPH, 37 °C; read-out: t1/2 in murine liver microsomes
# Experimental: Quantitative determination of LP-182 stability in murine liver microsomes was performed by the University of Michigan Pharmacokinetics Core. […]; in 100 mM phosphate buffer, 3 mM MgCl2) to a final concentration of […], and then reactions were sampled over 60 min. Aliquots were removed at the designated time points, quenched by addition of 4 volumes of cold acetonitrile, then centrifuged at 10,000 x g for 5 min to pellet protein precipitates. […] The natural log peak area ratio of compound to internal standard (Acmpd/AIstd) was plotted against time to determine pharmacokinetic properties of microsomal stability. All analyses, data processing, and calculations were performed and provided by the core. Data was generated from a single independent experiment.
compound,measurement,setting,value
"O=C(NOCCOCCOCCOCCC(=O)N1CCN(c2cnc3ccc(-c4cnc(Cl)c(NS(=O)(=O)c5ccc(F)cc5)c4)cc3n2)CC1)c1ccc(F)c(F)c1Nc1ccc(I)cc1F [LP-182, N-(2-(2-(2-(3-(4-(7-(6-chloro-5-((4-fluorophenyl)sulfonamido)pyridin-3-yl)quinoxalin-2-yl)piperazin-1-yl)-3-oxopropoxy)ethoxy)ethoxy)ethoxy)-3,4-difluoro-2-((2-fluoro-4-iodophenyl)amino)benzamide]",decrease of downstream activation of ERK1/2,[1],~ 50%
same,attenuation of spleen volume increase compared to vehicle,"[2]; Study 2, MPL^W515L mice, oral 400 mg kg^−1 daily, after 14 d",~ 35%
same,Spleen volume/body weight ratio,[2]; 15 Days Post-BMT,9.2805 mm3/g and 6.788 mm3/g and 8.526 mm3/g and 6.999 mm3/g and 8.219 mm3/g and 8.1905 mm3/g and 7.226 mm3/g and 10.8805 mm3/g
same,Spleen volume/body weight ratio,[2]; 22 Days Post-BMT,22.8 mm3/g and 16.1111 mm3/g and 16.0806 mm3/g and 22.1506 mm3/g and 12.2778 mm3/g and 11.0626 mm3/g and 6.573 mm3/g and 8.03 mm3/g
same,Spleen volume/body weight ratio,[2]; 29 Days Post-BMT,30.4359 mm3/g and 16.7368 mm3/g and 15.8947 mm3/g and 27.7838 mm3/g and 8.806 mm3/g and 15.337 mm3/g and 5.115 mm3/g and 6.324 mm3/g
same,half-life,[3],~8 min
